According to the supplement of paper PMC10307832:

Columns and labels:
Assay in all cases: relative viability (nuclei count vs DMSO), 5 days (fraction); higher = more cells survive
BEN = test system: BEN
Outline: (§1)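 Values are medians from duplicate plates. Each reflects relative viability, defined as the nuclei count of treated wells over that of vehicle wells. Lung cancer cell lines in 1536-well plates were pin-tool dosed one day after seeding with one drug alone or with a fixed anchor-drug dose plus five library-drug doses (not always all listed) in √10 steps, then fixed, stained and imaged at 4× after 5 days.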

NCI-H1395 = test system: NCI-H1395
Outline: as §1

NCI-H1355 = test system: NCI-H1355
Outline: as §1

NCI-H2170 = test system: NCI-H2170
Outline: as §1

HCC-44 = test system: HCC-44
Outline: as §1

EKVX = test system: EKVX
Outline: as §1

NCI-H2405 = test system: NCI-H2405
Outline: as §1

NCI-H1792 = test system: NCI-H1792
Outline: as §1

NCI-H2228 = test system: NCI-H2228
Outline: as §1

NCI-H661 = test system: NCI-H661
Outline: as §1

NCI-H1734 = test system: NCI-H1734
Outline: as §1

NCI-H2342 = test system: NCI-H2342
Outline: as §1

HARA = test system: HARA
Outline: as §1

SK-MES-1 = test system: SK-MES-1
Outline: as §1

NCI-H2009 = test system: NCI-H2009
Outline: as §1

HCC-827 = test system: HCC-827
Outline: as §1

LOU-NH91 = test system: LOU-NH91
Outline: as §1

NCI-H647 = test system: NCI-H647
Outline: as §1

HCC-366 = test system: HCC-366
Outline: as §1

SK-LU-1 = test system: SK-LU-1
Outline: as §1

NCI-H2087 = test system: NCI-H2087
Outline: as §1

NCI-H1437 = test system: NCI-H1437
Outline: as §1

NCI-H596 = test system: NCI-H596
Outline: as §1

LC-2-ad = test system: LC-2-ad
Outline: as §1

Structure (SMILES): Clc1ccc(Nc2nnc(Cc3ccncc3)c3ccccc23)cc1 [Vatalanib] + O=C(c1cc(Cc2n[nH]c(=O)c3ccccc23)ccc1F)N1CCN(C(=O)C2CC2)CC1 [Olaparib] (partner 8 µM)
- relative viability (BEN; first compound 0.04 µM): 1.03
- relative viability (BEN; first compound 0.1265 µM): 1.01
- relative viability (BEN; first compound 0.4 µM): 1.31
- relative viability (BEN; first compound 1.265 µM): 1.04
- relative viability (BEN; first compound 4 µM): 0.877
- relative viability (NCI-H1395; first compound 0.04 µM): 0.448
- relative viability (NCI-H1395; first compound 0.1265 µM): 0.456
- relative viability (NCI-H1395; first compound 0.4 µM): 0.489
- relative viability (NCI-H1395; first compound 4 µM): 0.437
- relative viability (NCI-H1355; first compound 0.04 µM): 0.732
- relative viability (NCI-H1355; first compound 0.1265 µM): 0.79
- relative viability (NCI-H1355; first compound 0.4 µM): 0.809
- relative viability (NCI-H1355; first compound 1.265 µM): 0.699
- relative viability (NCI-H1355; first compound 4 µM): 0.706
- relative viability (NCI-H2170; first compound 0.04 µM): 0.623
- relative viability (NCI-H2170; first compound 0.1265 µM): 0.656
- relative viability (NCI-H2170; first compound 0.4 µM): 0.702
- relative viability (NCI-H2170; first compound 1.265 µM): 0.512
- relative viability (NCI-H2170; first compound 4 µM): 0.556
- relative viability (HCC-44; first compound 0.04 µM): 1.05
- relative viability (HCC-44; first compound 0.1265 µM): 0.971
- relative viability (HCC-44; first compound 0.4 µM): 0.978
- relative viability (HCC-44; first compound 1.265 µM): 0.998
- relative viability (HCC-44; first compound 4 µM): 0.996
- relative viability (EKVX; first compound 0.04 µM): 0.955
- relative viability (EKVX; first compound 0.1265 µM): 0.885
- relative viability (EKVX; first compound 0.4 µM): 0.851
- relative viability (EKVX; first compound 1.265 µM): 0.66
- relative viability (EKVX; first compound 4 µM): 0.756
- relative viability (NCI-H2405; first compound 0.04 µM): 0.808
- relative viability (NCI-H2405; first compound 0.1265 µM): 0.807
- relative viability (NCI-H2405; first compound 0.4 µM): 0.957
- relative viability (NCI-H2405; first compound 4 µM): 0.87
- relative viability (NCI-H1792; first compound 0.04 µM): 0.52
- relative viability (NCI-H1792; first compound 0.1265 µM): 0.384
- relative viability (NCI-H1792; first compound 0.4 µM): 0.399
- relative viability (NCI-H1792; first compound 1.265 µM): 0.344
- relative viability (NCI-H1792; first compound 4 µM): 0.413
- relative viability (NCI-H2228; first compound 0.04 µM): 0.648
- relative viability (NCI-H2228; first compound 0.1265 µM): 0.772
- relative viability (NCI-H2228; first compound 0.4 µM): 0.816
- relative viability (NCI-H2228; first compound 1.265 µM): 0.654
- relative viability (NCI-H2228; first compound 4 µM): 0.598
- relative viability (NCI-H661; first compound 0.04 µM): 0.769
- relative viability (NCI-H661; first compound 0.1265 µM): 0.757
- relative viability (NCI-H661; first compound 0.4 µM): 0.788
- relative viability (NCI-H661; first compound 1.265 µM): 0.73
- relative viability (NCI-H661; first compound 4 µM): 0.706
- relative viability (NCI-H1734; first compound 0.04 µM): 0.64
- relative viability (NCI-H1734; first compound 0.1265 µM): 0.582
- relative viability (NCI-H1734; first compound 0.4 µM): 0.621
- relative viability (NCI-H1734; first compound 1.265 µM): 0.609
- relative viability (NCI-H1734; first compound 4 µM): 0.617
- relative viability (NCI-H2342; first compound 0.04 µM): 0.397
- relative viability (NCI-H2342; first compound 0.1265 µM): 0.452
- relative viability (NCI-H2342; first compound 0.4 µM): 0.461
- relative viability (NCI-H2342; first compound 1.265 µM): 0.365
- relative viability (NCI-H2342; first compound 4 µM): 0.471
- relative viability (HARA; first compound 0.04 µM): 0.713
- relative viability (HARA; first compound 0.1265 µM): 0.725
- relative viability (HARA; first compound 0.4 µM): 0.875
- relative viability (HARA; first compound 1.265 µM): 0.97
- relative viability (HARA; first compound 4 µM): 0.823
- relative viability (SK-MES-1; first compound 0.04 µM): 0.608
- relative viability (SK-MES-1; first compound 0.1265 µM): 0.71
- relative viability (SK-MES-1; first compound 0.4 µM): 0.821
- relative viability (SK-MES-1; first compound 1.265 µM): 0.61
- relative viability (SK-MES-1; first compound 4 µM): 0.627
- relative viability (NCI-H2009; first compound 0.04 µM): 0.703
- relative viability (NCI-H2009; first compound 0.1265 µM): 0.623
- relative viability (NCI-H2009; first compound 0.4 µM): 0.675
- relative viability (NCI-H2009; first compound 1.265 µM): 0.672
- relative viability (NCI-H2009; first compound 4 µM): 0.594
- relative viability (HCC-827; first compound 0.04 µM): 0.56
- relative viability (HCC-827; first compound 0.1265 µM): 0.655
- relative viability (HCC-827; first compound 1.265 µM): 0.534
- relative viability (HCC-827; first compound 4 µM): 0.638
- relative viability (LOU-NH91; first compound 0.04 µM): 0.912
- relative viability (LOU-NH91; first compound 0.1265 µM): 0.886
- relative viability (LOU-NH91; first compound 0.4 µM): 0.793
- relative viability (LOU-NH91; first compound 1.265 µM): 0.881
- relative viability (LOU-NH91; first compound 4 µM): 0.875
- relative viability (NCI-H647; first compound 0.04 µM): 0.612
- relative viability (NCI-H647; first compound 0.1265 µM): 0.582
- relative viability (NCI-H647; first compound 0.4 µM): 0.582
- relative viability (NCI-H647; first compound 1.265 µM): 0.584
- relative viability (NCI-H647; first compound 4 µM): 0.531
- relative viability (HCC-366; first compound 0.04 µM): 0.337
- relative viability (HCC-366; first compound 0.1265 µM): 0.34
- relative viability (HCC-366; first compound 0.4 µM): 0.416
- relative viability (HCC-366; first compound 1.265 µM): 0.334
- relative viability (HCC-366; first compound 4 µM): 0.303
- relative viability (SK-LU-1; first compound 0.04 µM): 0.438
- relative viability (SK-LU-1; first compound 0.1265 µM): 0.449
- relative viability (SK-LU-1; first compound 0.4 µM): 0.52
- relative viability (SK-LU-1; first compound 1.265 µM): 0.467
- relative viability (SK-LU-1; first compound 4 µM): 0.365
- relative viability (NCI-H2087; first compound 0.04 µM): 0.461
- relative viability (NCI-H2087; first compound 0.1265 µM): 0.542
- relative viability (NCI-H2087; first compound 0.4 µM): 0.682
- relative viability (NCI-H2087; first compound 1.265 µM): 0.519
- relative viability (NCI-H2087; first compound 4 µM): 0.633
- relative viability (NCI-H1437; first compound 0.04 µM): 0.67
- relative viability (NCI-H1437; first compound 0.1265 µM): 0.625
- relative viability (NCI-H1437; first compound 0.4 µM): 0.679
- relative viability (NCI-H1437; first compound 1.265 µM): 0.625
- relative viability (NCI-H1437; first compound 4 µM): 0.606
- relative viability (NCI-H596; first compound 0.04 µM): 0.751
- relative viability (NCI-H596; first compound 0.1265 µM): 0.741
- relative viability (NCI-H596; first compound 0.4 µM): 0.63
- relative viability (NCI-H596; first compound 1.265 µM): 0.652
- relative viability (NCI-H596; first compound 4 µM): 0.765
- relative viability (LC-2-ad; first compound 0.04 µM): 0.661
- relative viability (LC-2-ad; first compound 0.1265 µM): 0.67
- relative viability (LC-2-ad; first compound 0.4 µM): 0.686
- relative viability (LC-2-ad; first compound 1.265 µM): 0.694
- relative viability (LC-2-ad; first compound 4 µM): 0.69
